What was measured:
NCI-H1299 = assay: Antiproliferative activity against human NCI-H1299 cells assessed as reduction in cell growth by MTT assay; format: functional, cell-based
NCI-H460 = assay: Antiproliferative activity against human NCI-H460 cells assessed as reduction in cell growth by MTT assay; format: functional, cell-based
A549 [1] = assay: Antiproliferative activity against human A549 cells assessed as reduction in cell growth by MTT assay; format: functional, cell-based
MCF-10A = assay: Cytotoxicity against human MCF-10A cells assessed as reduction in cell growth by MTT assay; format: cell-based
MDA-MB-231 = assay: Antiproliferative activity against human MDA-MB-231 cells assessed as reduction in cell growth by MTT assay; format: functional, cell-based
[2] = target: T1, Epidermal growth factor receptor (Homo sapiens, UniProt P00533); assay: Inhibition of EGFR in human A549 cells measured after 30 hrs by ELISA; format: cell-based
T1 sequence (P00533 whole entry): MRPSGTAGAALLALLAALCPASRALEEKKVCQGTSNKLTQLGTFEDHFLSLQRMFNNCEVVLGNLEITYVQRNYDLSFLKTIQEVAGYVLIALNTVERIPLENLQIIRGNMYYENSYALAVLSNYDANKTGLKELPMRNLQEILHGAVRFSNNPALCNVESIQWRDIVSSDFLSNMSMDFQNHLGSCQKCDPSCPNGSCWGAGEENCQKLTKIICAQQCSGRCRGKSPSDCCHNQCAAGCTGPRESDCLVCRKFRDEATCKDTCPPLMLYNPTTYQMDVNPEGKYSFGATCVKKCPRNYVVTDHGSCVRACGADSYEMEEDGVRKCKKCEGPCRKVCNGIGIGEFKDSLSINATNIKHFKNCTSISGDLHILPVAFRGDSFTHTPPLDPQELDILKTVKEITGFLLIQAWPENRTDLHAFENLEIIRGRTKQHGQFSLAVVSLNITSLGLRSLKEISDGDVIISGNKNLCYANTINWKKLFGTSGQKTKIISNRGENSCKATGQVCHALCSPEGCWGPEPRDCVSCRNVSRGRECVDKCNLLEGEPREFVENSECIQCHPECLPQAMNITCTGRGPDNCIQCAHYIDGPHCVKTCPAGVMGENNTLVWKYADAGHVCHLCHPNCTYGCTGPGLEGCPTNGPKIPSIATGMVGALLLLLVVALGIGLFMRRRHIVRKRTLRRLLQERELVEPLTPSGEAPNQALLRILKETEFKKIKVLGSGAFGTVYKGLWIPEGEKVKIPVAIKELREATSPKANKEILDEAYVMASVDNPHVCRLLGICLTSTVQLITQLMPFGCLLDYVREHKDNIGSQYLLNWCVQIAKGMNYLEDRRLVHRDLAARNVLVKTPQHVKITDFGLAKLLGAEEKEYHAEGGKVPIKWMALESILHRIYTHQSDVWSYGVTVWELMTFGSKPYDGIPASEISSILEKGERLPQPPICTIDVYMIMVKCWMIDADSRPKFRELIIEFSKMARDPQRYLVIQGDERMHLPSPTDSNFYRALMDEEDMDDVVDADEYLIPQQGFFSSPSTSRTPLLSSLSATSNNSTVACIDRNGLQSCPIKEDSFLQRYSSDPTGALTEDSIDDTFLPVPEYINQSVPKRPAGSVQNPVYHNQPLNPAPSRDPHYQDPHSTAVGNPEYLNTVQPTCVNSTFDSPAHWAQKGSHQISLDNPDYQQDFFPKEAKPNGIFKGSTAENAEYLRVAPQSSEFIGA

[3] = target: T1, Epidermal growth factor receptor; assay: Potency index, ratio of erlotinib IC50 to test compound IC50 for EGFR in human A549 cells measured after 30 hrs by ELISA; format: cell-based
A549 [4] = assay: Potency index, ratio of erlotinib IC50 to test compound IC50 for antiproliferative activity against human A549 cells assessed as reduction in cell growth by MTT assay; format: functional

SMILES | IC50 (NCI-H1299) | IC50 (NCI-H460) | IC50 (A549 [1]) | IC50 (MCF-10A) | IC50 (MDA-MB-231) | IC50 [2] | Ratio IC50 [3] | Ratio IC50 (A549 [4])
C#Cc1cccc(Nc2ncnc3cc(OCCOC)c(OCCOC(=O)CCCCC[N+]4=C(/C=C/C=C/C=C/C=C5/N(CCCC)c6ccccc6C5(C)C)C(C)(C)c5ccccc54)cc23)c1 | 2000 nM | 570 nM | 631 nM | 33200 nM | < 125 nM |  |  | 
C#Cc1cccc(Nc2ncnc3cc(OCCOC)c(OCCOC(=O)CCCCC[N+]4=C(/C=C/C5=C(Cl)C(=C/C=C6/N(CCCCCC(=O)O)c7ccc(Br)cc7C6(C)C)/CCC5)C(C)(C)c5cc(Br)ccc54)cc23)c1 | 17600 nM | 13700 nM | 7330 nM |  | 609 nM |  |  | 
C#Cc1cccc(Nc2ncnc3cc(OCCOC)c(OCCOC(=O)CCCCC[N+]4=C(/C=C/C=C/C=C/C=C5/N(CCCC)c6ccccc6C5(C)C)C(C)(C)c5cc(C)ccc54)cc23)c1 | 1740 nM | 2120 nM | 2070 nM |  | 313 nM |  |  | 
C#Cc1cccc(Nc2ncnc3cc(OCCOC)c(OCCOC(=O)CCCCC[N+]4=C(/C=C/C5=C(Cl)C(=C/C=C6/N(CCCCCC(=O)O)c7ccc(C)cc7C6(C)C)/CCC5)C(C)(C)c5cc(C)ccc54)cc23)c1 | 1550 nM | 816 nM | 2380 nM |  | 3360 nM |  |  | 
C#Cc1cccc(Nc2ncnc3cc(OCCOC)c(OCCOC(=O)CCCCC[N+]4=C(/C=C/C=C/C=C/C=C5/N(CCCCCC(=O)O)c6ccc(C)cc6C5(C)C)C(C)(C)c5cc(C)ccc54)cc23)c1 | 4150 nM | 5650 nM | 2100 nM |  | 6210 nM |  |  | 
C#Cc1cccc(Nc2ncnc3cc(OCCOC)c(OCCOC(=O)CCCCC[N+]4=C(/C=C/C=C/C=C/C=C5/N(CCCC)c6ccccc6C5(C)C)C(C)(C)c5cc(C(F)(F)F)ccc54)cc23)c1 | 541 nM | 813 nM | 230 nM |  | 356 nM | 205 nM |  | 
C#Cc1cccc(Nc2ncnc3cc(OCCOC)c(OCCOC(=O)CCCCC[N+]4=C(/C=C/C=C/C=C/C=C5/N(CCCC)c6ccccc6C5(C)C)C(C)(C)c5cc(Br)ccc54)cc23)c1 | 693 nM | 655 nM | 579 nM |  | < 125 nM |  |  | 
C#Cc1cccc(Nc2ncnc3cc(OCCOC)c(OCCOC(=O)CCCCC[N+]4=C(/C=C/C=C/C=C/C=C5/N(CCCC)c6ccc(OC)cc6C5(C)C)C(C)(C)c5cc(Br)ccc54)cc23)c1 | 246 nM | 855 nM | 2080 nM |  | 833 nM |  |  | 
C#Cc1cccc(Nc2ncnc3cc(OCCOC)c(OCCOC(=O)CCCCC[N+]4=C(/C=C/C=C/C=C/C=C5/N(CCCC)c6ccc(OC)cc6C5(C)C)C(C)(C)c5cc(OC)ccc54)cc23)c1 | 110 nM | 217 nM | 455 nM |  | < 125 nM |  |  | 
C#Cc1cccc(Nc2ncnc3cc(OCCOC)c(OCCOC(=O)CCCCC[N+]4=C(/C=C/C=C/C=C/C=C5/N(CCCCCC(=O)O)c6ccccc6C5(C)C)C(C)(C)c5ccccc54)cc23)c1 | 5140 nM | 7250 nM | 1130 nM |  | 1620 nM |  |  | 
C#Cc1cccc(Nc2ncnc3cc(OCCOC)c(OCCOC(=O)CCCCC[N+]4=C(/C=C/C=C/C=C/C=C5/N(CCCC)c6ccc(OC)cc6C5(C)C)C(C)(C)c5cc(C(F)(F)F)ccc54)cc23)c1.[Br-] | 79 nM | 301 nM | 177 nM | 38600 nM | 311 nM | 124 nM | 14 | 14
CC(=O)O[C@H]1C(=O)[C@@]2(C)[C@H]([C@H](OC(=O)c3ccccc3)[C@]3(O)C[C@H](OC(=O)[C@H](O)[C@@H](NC(=O)c4ccccc4)c4ccccc4)C(C)=C1C3(C)C)[C@]1(OC(C)=O)CO[C@@H]1C[C@@H]2O [PACLITAXEL] | 5 nM | < 1 nM | < 1 nM |  | < 25 nM |  |  | 
C#Cc1cccc(Nc2ncnc3cc(OCCOC)c(OCCOC(=O)CCCCC[N+]4=C(/C=C/C=C/C=C/C=C5/N(CCCC)c6ccc(OC)cc6C5(C)C)C(C)(C)c5ccccc54)cc23)c1 | 378 nM | 549 nM | 388 nM |  | 306 nM |  |  | 
C#Cc1cccc(Nc2ncnc3cc(OCCOC)c(OCCOC(=O)CCCCC[N+]4=C(/C=C/C5=C(Cl)C(=C/C=C6/N(CCCCCC(=O)O)c7ccc(OC)cc7C6(C)C)/CCC5)C(C)(C)c5cc(OC)ccc54)cc23)c1 | 2210 nM | 2700 nM | 1960 nM |  | 4230 nM |  |  | 
C#Cc1cccc(Nc2ncnc3cc(OCCOC)c(OCCOC(=O)CCCCC[N+]4=C(/C=C/C=C/C=C/C=C5/N(CCCC)c6ccc(OC)cc6C5(C)C)C(C)(C)c5cc(C)ccc54)cc23)c1 | 1350 nM | 827 nM | 678 nM |  | 531 nM |  |  | 
C#Cc1cccc(Nc2ncnc3cc(OCCOC)c(OCCOC(=O)CCCCC[N+]4=C(/C=C/C=C/C=C/C=C5/N(CCCC)c6ccccc6C5(C)C)C(C)(C)c5cc(OC)ccc54)cc23)c1 | 680 nM | 2470 nM | 3940 nM |  | < 125 nM |  |  | 
C#Cc1cccc(Nc2ncnc3cc(OCCOC)c(OCCOC(=O)CCCCC[N+]4=C(/C=C/C5=C(Cl)C(=C/C=C6/N(CCCCCC(=O)O)c7ccccc7C6(C)C)/CCC5)C(C)(C)c5ccccc54)cc23)c1 | 6960 nM | 15200 nM | 9040 nM |  | 4310 nM |  |  | 
C#Cc1cccc(Nc2ncnc3cc(OCCOC)c(OCCOC(=O)CCCCC[N+]4=C(/C=C/C=C/C=C/C=C5/N(CCCCCC(=O)O)c6ccc(OC)cc6C5(C)C)C(C)(C)c5cc(OC)ccc54)cc23)c1 | 14900 nM | 5120 nM | 2590 nM |  | 3300 nM |  |  | 

From ChEMBL document CHEMBL4665826, “Design, synthesis and biological evaluation of novel heptamethine cyanine dye-erlotinib conjugates as antitumor agents” (Bioorg Med Chem Lett, 2020)
